Test results taken from PubChem BioAssay (NCI).
Values after ≈ are worked out from the molar mass of the structure shown. Values joined by “and” are separate entries in the source; they are usually repeats but may differ in a detail not shown here. Equal values may be shown once.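 Method: 48-hour compound exposure of cells in 96-well plates, five concentrations, linear interpolation of endpoints. Here, GI50 denotes the concentration required for 50% inhibition of growth. The concentration for full growth arrest is given as TGI.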 Where a SMILES comes first, the peptide text is derived from it. The star is where a group is joined. Boc = CC(C)(C)OC(=O)*; OcHex = C1CCC(O*)CC1

Columns and labels:
Experiment in all cases: inhibition of tumour cell growth, NCI panel, 48 h; in the data active means GI50 below about 0.43 µM; inactive means the rest
UACC-257 melanoma = system: UACC-257 melanoma
K-562 leukemia = system: K-562 leukemia
SK-MEL-28 melanoma = system: SK-MEL-28 melanoma
UACC-62 melanoma = system: UACC-62 melanoma
SNB-75 CNS = system: SNB-75 CNS
BT-549 breast = system: BT-549 breast
M14 melanoma = system: M14 melanoma
MOLT-4 leukemia = system: MOLT-4 leukemia
UO-31 renal = system: UO-31 renal
MALME-3M melanoma = system: MALME-3M melanoma
HOP-92 NSCLC = system: HOP-92 NSCLC
NCI-H522 lung = system: NCI-H522 lung
SK-OV-3 ovarian = system: SK-OV-3 ovarian
HCT-15 colon = system: HCT-15 colon
SF-268 CNS = system: SF-268 CNS
786-0 renal = system: 786-0 renal
SNB-19 CNS = system: SNB-19 CNS
SW-620 colon = system: SW-620 colon
T-47D breast = system: T-47D breast
LOX IMVI melanoma = system: LOX IMVI melanoma
OVCAR-3 ovarian = system: OVCAR-3 ovarian
PC-3 prostate = system: PC-3 prostate
A549 NSCLC = system: A549 NSCLC
RXF 393 renal = system: RXF 393 renal
SF-295 CNS = system: SF-295 CNS
HOP-62 NSCLC = system: HOP-62 NSCLC
U251 CNS = system: U251 CNS
NCI-H226 lung = system: NCI-H226 lung
MCF7 breast = system: MCF7 breast
RPMI-8226 leukemia = system: RPMI-8226 leukemia
DU-145 prostate = system: DU-145 prostate
A498 renal = system: A498 renal
OVCAR-4 ovarian = system: OVCAR-4 ovarian
KM12 colon = system: KM12 colon
ACHN renal = system: ACHN renal
SK-MEL-5 melanoma = system: SK-MEL-5 melanoma
OVCAR-8 ovarian = system: OVCAR-8 ovarian
EKVX NSCLC = system: EKVX NSCLC
TK-10 renal = system: TK-10 renal
HT29 colon = system: HT29 colon
SN12C renal = system: SN12C renal
CAKI-1 renal = system: CAKI-1 renal
MDA-MB-231 breast = system: MDA-MB-231 breast
HCC-2998 colon = system: HCC-2998 colon

CC(C)CC(NC(=O)OC(C)(C)C)C(=O)NC(CCC(=O)OC1CCCCC1)C(N)=O (stereo not drawn) (Boc-Leu-Glu(OcHex)-NH2; configuration not given here)
45.9 µg/mL: TGI (NCI-H522 lung)
inactive: GI50 (UACC-257 melanoma) 51.2 µg/mL (≈ 116 µM) | GI50 (K-562 leukemia) 51.9 µg/mL (≈ 118 µM) | GI50 (SK-MEL-28 melanoma) 44.8 µg/mL (≈ 102 µM) | GI50 (UACC-62 melanoma) 94.8 µg/mL (≈ 215 µM) | GI50 (SNB-75 CNS) 71.5 µg/mL (≈ 162 µM) | GI50 (BT-549 breast) 63.5 µg/mL (≈ 144 µM) | GI50 (M14 melanoma) 78.8 µg/mL (≈ 178 µM) | GI50 (MOLT-4 leukemia) 62.9 µg/mL (≈ 142 µM) | GI50 (UO-31 renal) 94.8 µg/mL (≈ 215 µM) | GI50 (MALME-3M melanoma) 42.9 µg/mL (≈ 97.2 µM) | GI50 (HOP-92 NSCLC) 12.5 µg/mL | GI50 (NCI-H522 lung) 12.2 µg/mL (≈ 27.7 µM) | GI50 (SK-OV-3 ovarian) 92.7 µg/mL (≈ 210 µM)
36.7 µg/mL: TGI (HOP-92 NSCLC)

O=C1CC(c2cccc(Cl)c2)Nc2ccc(N3CCCC3)cc21 (centres undefined)
0.0151 µM: TGI (SN12C renal)
> 100 µM: TGI (HCT-15 colon) | TGI (UACC-257 melanoma) | TGI (SK-MEL-28 melanoma) | TGI (SF-268 CNS) | TGI (786-0 renal) | TGI (SNB-19 CNS) | TGI (SW-620 colon) | TGI (T-47D breast) | TGI (LOX IMVI melanoma) | TGI (OVCAR-3 ovarian) | TGI (PC-3 prostate) | TGI (A549 NSCLC) | TGI (SF-295 CNS) | TGI (HOP-62 NSCLC) | TGI (M14 melanoma) | TGI (U251 CNS) | TGI (MCF7 breast) | TGI (A498 renal) | TGI (OVCAR-4 ovarian) | TGI (HOP-92 NSCLC) | TGI (ACHN renal) | TGI (EKVX NSCLC) | TGI (TK-10 renal) | TGI (SK-OV-3 ovarian) | TGI (CAKI-1 renal) | TGI (MDA-MB-231 breast)
0.087 µM: TGI (SK-MEL-5 melanoma)
0.606 µM and 0.338 µM: TGI (NCI-H226 lung)
3.85 µM: TGI (OVCAR-8 ovarian)
0.0611 µM: TGI (HCC-2998 colon)
active: GI50 (HCT-15 colon) 0.0329 µM | GI50 (SF-268 CNS) 0.0417 µM | GI50 (A549 NSCLC) 0.0153 µM | GI50 (MCF7 breast) 0.0649 µM | GI50 (KM12 colon) 0.0153 µM | GI50 (HOP-92 NSCLC) 0.135 µM | GI50 (HCC-2998 colon) 0.0148 µM
0.0171 µM: TGI (RPMI-8226 leukemia)
0.017 µM: TGI (K-562 leukemia)
inactive: GI50 (OVCAR-4 ovarian) 18.6 µM | GI50 (TK-10 renal) > 100 µM | GI50 (MDA-MB-231 breast) 0.433 µM
0.0845 µM: TGI (RXF 393 renal)
0.0677 µM: TGI (NCI-H522 lung)
2.25 µM and 13.6 µM: TGI (DU-145 prostate)
0.117 µM: TGI (KM12 colon)
0.331 µM: TGI (HT29 colon)
50.7 µM: TGI (UO-31 renal)
